The text below walks through data of patent US10626112B2, “Heterocyclic sulfonamide derivative and medicine comprising same” (EA PHARMA CO., LTD., priority 2014, dated 2020).

pIC50: −log10 of the molar value.

human TRPA1, sequence (O75762 whole entry): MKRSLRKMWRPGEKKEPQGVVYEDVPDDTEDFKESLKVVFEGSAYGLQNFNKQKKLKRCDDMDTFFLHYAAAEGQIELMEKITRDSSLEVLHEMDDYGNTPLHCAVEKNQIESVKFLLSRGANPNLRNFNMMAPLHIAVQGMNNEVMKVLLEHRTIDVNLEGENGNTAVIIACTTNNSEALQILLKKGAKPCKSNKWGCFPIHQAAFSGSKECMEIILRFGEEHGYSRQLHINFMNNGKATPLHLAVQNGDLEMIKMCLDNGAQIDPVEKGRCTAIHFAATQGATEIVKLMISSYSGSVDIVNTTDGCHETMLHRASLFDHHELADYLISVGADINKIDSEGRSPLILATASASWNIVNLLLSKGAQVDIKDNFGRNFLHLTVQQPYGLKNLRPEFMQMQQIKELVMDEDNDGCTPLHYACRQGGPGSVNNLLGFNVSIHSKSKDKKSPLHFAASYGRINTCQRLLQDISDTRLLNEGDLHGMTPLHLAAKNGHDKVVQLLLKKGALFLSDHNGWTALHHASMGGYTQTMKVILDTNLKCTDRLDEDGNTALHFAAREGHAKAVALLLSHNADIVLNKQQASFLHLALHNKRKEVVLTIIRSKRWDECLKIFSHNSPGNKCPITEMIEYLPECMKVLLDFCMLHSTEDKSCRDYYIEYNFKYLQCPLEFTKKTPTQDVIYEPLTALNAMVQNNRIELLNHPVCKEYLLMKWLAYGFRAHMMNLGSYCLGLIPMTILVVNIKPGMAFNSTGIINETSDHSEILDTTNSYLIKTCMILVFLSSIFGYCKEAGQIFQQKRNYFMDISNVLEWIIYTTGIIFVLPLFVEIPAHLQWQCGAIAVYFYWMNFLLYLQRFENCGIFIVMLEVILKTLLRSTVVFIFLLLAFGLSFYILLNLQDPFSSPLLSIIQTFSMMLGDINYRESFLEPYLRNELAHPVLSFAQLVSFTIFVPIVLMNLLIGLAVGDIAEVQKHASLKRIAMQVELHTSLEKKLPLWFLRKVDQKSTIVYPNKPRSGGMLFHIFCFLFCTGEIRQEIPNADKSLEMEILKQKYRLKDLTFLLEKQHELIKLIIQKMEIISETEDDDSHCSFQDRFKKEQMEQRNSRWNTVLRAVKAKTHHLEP

This experiment addresses human TRPA1 (Homo sapiens (Human), UniProt O75762). Put plainly: Measurement of TRPA1 antagonist activity (1): intracellular calcium increase. The class given is cell-based. The following applies: 293T cells transfected with human TRPA1 expression plasmid; allylisothiocyanate 20 μM stimulation; intracellular calcium fluorescence; read-out: hTRPA1 IC50. Summed up:
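Calcium-flux readout of TRPA1 block: compound given 10 min before 20 μM (final) allylisothiocyanate, fluorescence tracked 5 min. Cells were 293T transiently expressing human TRPA1, dye-loaded 1 hr in HBSS, 20 mM HEPES, pH 7.2. Inhibition scaled between agonist-only and buffer-only responses; IC50 by sigmoid fitting.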
What is called pIC50 is the negative decadic logarithm of the IC50, by convention in mol/L. With `C[C@H](NS(=O)(=O)c1cc2cc(F)ccc2o1)C(=O)NCc1cc(-c2ccc(C(F)(F)F)cc2)cnn1` [Example 250, (2S)-2-[(5-fluorobenzofuran-2-yl)sulfonylamino]-N-[[5-[4-(trifluoromethyl)phenyl]-pyridazin-3-yl]methyl]propanamide], the pIC50 was 7.14.
On to `C[C@H](NS(=O)(=O)c1cc2cc(F)ccc2o1)C(=O)NCc1cc(-c2ccc(C(F)(F)F)cn2)cnn1` [Example 251, (2S)-2-[(5-fluorobenzofuran-2-yl)sulfonylamino]-N-[[5-[5-(trifluoromethyl)-2-pyridyl]pyridazin-3-yl]methyl]propanamide], for which the pIC50 is 6.48.
As for `C[C@H](NS(=O)(=O)c1cc2cc(F)ccc2o1)C(=O)NCc1ccc(O)c(-c2ccc(C(F)(F)F)cn2)c1` [Example 252, (2S)-2-[(5-fluorobenzofuran-2-yl)sulfonylamino]-N-[[4-hydroxy-3-[5-(trifluoromethyl)-2-pyridyl]-phenyl]methyl]propanamide], the figure is 7.85; as for `C[C@H](NS(=O)(=O)c1cc2cc(F)ccc2o1)C(=O)NCc1ccc(O)c(-c2ncc(C(F)(F)F)cn2)c1` [Example 253, (2S)-2-[(5-fluorobenzofuran-2-yl)sulfonylamino]-N-[[4-hydroxy-3-[5-(trifluoromethyl)pyrimidin-2-yl]phenyl]methyl]propanamide], 6.80.
As for `C[C@H](NS(=O)(=O)c1cc2cc(F)ccc2o1)C(=O)NCc1ccc(O)c(-c2cnc(C(F)(F)F)cn2)c1` [Example 254, (2S)-2-[(5-fluorobenzofuran-2-yl)sulfonylamino]-N-[[4-hydroxy-3-[5-(trifluoromethyl)pyrazin-2-yl]phenyl]methyl]propanamide], the pIC50 is 7.10.
With `C[C@H](NS(=O)(=O)c1cc2cc(F)ccc2o1)C(=O)NCc1cc(-c2ccc(C(F)(F)F)cn2)c(O)cn1` [Example 255, (2S)-2-[(5-fluorobenzofuran-2-yl)sulfonylamino]-N-[[5-hydroxy-4-[5-(trifluoromethyl)-2-pyridyl]-2-pyridyl]methyl]propanamide], the negative logarithm of the IC50 (pIC50) was 7.77.
Regarding `O=C(NCc1cc(-c2ccc(C(F)(F)F)cn2)ccn1)[C@@H]1C[C@@H](O)CN1S(=O)(=O)c1cc2cc(F)ccc2o1` [Example 256, (2S,4R)-1-(5-fluorobenzofuran-2-yl)sulfonyl-4-hydroxy-N-[[4-[5-(trifluoromethyl)-2-pyridyl]-2-pyridyl]methyl]pyrrolidine-2-carboxamide], the pIC50 was 7.04.
As to `O=C(NCc1cc(-c2ccc(C(F)(F)F)cn2)ccn1)[C@@H]1[C@H]2C[C@H]2CN1S(=O)(=O)c1cc2cc(F)ccc2o1` [Example 257, (1R,4S,5S)-3-(5-fluorobenzofuran-2-yl)sulfonyl-N-[[4-[5-(trifluoromethyl)-2-pyridyl]-2-pyridyl]methyl]-3-azabicyclo[3.1.0]hexane-4-carboxamide], the negative logarithm of the IC50 (pIC50) was 7.19.
Consider `O=C(NCc1cc(-c2ccc(C(F)(F)F)cn2)ccn1)[C@@H]1C[C@H]2C[C@H]2N1S(=O)(=O)c1cc2cc(F)ccc2o1` [Example 258, (1R,3S,5R)-4-(5-fluorobenzofuran-2-yl)sulfonyl-N-[[4-[5-(trifluoromethyl)-2-pyridyl]-2-pyridyl]methyl]-4-azabicyclo[3.1.0]hexane-3-carboxamide], for which the negative logarithm of the IC50 (pIC50) is 8.72.
On to `O=C(NCc1cc(-c2ccc(C(F)(F)F)cn2)ccn1)[C@@H]1C[C@@H]2C[C@@H]2N1S(=O)(=O)c1cc2cc(F)ccc2o1` [Example 259, (1S,3S,5S)-4-(5-fluorobenzofuran-2-yl)sulfonyl-N-[[4-[5-(trifluoromethyl)-2-pyridyl]-2-pyridyl]methyl]-4-azabicyclo[3.1.0]hexane-3-carboxamide], for which the pIC50 was 8.92.
As for `O=C(NCc1cc(-c2ccc(C(F)(F)F)cn2)ccn1)[C@@H]1C[C@@H](c2ccccc2)CN1S(=O)(=O)c1cc2cc(F)ccc2o1` [Example 260, (2S,4S)-1-(5-fluorobenzofuran-2-yl)sulfonyl-4-phenyl-N-[[4-[5-(trifluoromethyl)-2-pyridyl]-2-pyridyl]methyl]pyrrolidine-2-carboxamide], the pIC50 was 7.29.
